From patent publication US20040219626A1, “Method for identifying fungicidally active compounds” (priority 2002, published 2004)

Legend:
[1] = target: farnesyl-pyrophosphate synthase (Saccharomyces cerevisiae, UniProt P08524); test: farnesyl-pyrophosphate synthase inhibition assay (coupled assay, malachite green, 384-well MTP); assay type: biochemical; settings: read-out: p150 (converted)
From the text: A preferred method exploits the fact that two pyrophosphate molecules are liberated in the farnesyl-pyrophosphate synthase reaction. The activity, or the decrease or increase in activity, of the polypeptide according to the invention can thus be determined by enzymatically cleaving the pyrophosphate by means of inorganic pyrophosphatase and subsequently detecting the orthophosphate which has been liberated, using a phosphate detection reagent. The lower, or inhibited, activity of the polypeptide according to the invention is monitored with reference to the photospectrometric determination of the decrease or increase, of the orthophosphate which has been liberated. The concentration of phosphate which has been liberated can then be determined with a phosphate detection reagent at an absorption maximum at 620 nm.
The measurement can also be carried out in formats conventionally used for HTS or UHTS assays, for example in microtitre plates, into which for example a total volume of 5 to 50 μl is introduced per reaction or per well and the individual components are present in one of the above-stated final concentrations (cf. Example 2). […] The polypeptide according to the invention is then added in the abovementioned assay buffer containing the auxiliary enzyme inorganic pyrophosphatase, which is required for the coupled assay, thus starting the reaction. The mixture is then incubated for example for up to 40 minutes at a suitable temperature, and the increase in absorption is measured at 620 nm.
A further measurement is carried out in a corresponding mixture, but without addition of a candidate molecule and without addition of a polypeptide according to the invention (negative control). Another measurement, in turn, is carried out in the absence of a candidate molecule, but in the presence of the polypeptide according to the invention (positive control). The negative and the positive controls thus provide the reference values for the mixtures in the presence of a candidate molecule.
A pI50 value of 8, for example, corresponds to half the maximum inhibition of the enzyme at a concentration of 10 nM.
384-well microtitre plates from Greiner were used for identifying farnesyl-pyrophosphate synthase modulators.
The negative control was pipetted into the first column.
The positive control was pipetted into the second column.
A test substance in a concentration of 2 μM in DMSO was introduced into the remaining columns, 5 μl of the assay buffer being used for diluting the substance to a volume of. […] This was followed by incubation at room temperature for 40 minutes. The reaction was subsequently quenched by addition of 50 μl of malachite green solution (three parts of 0.025% malachite green solution (in water) were mixed with one part of 2% ammonium heptamolybdate solution (in 4 M HCl) and 39 parts of this solution were mixed with one part of 7.5% Tween 20 (in water) immediately prior to testing) and the mixture was incubated for 90 minutes at room temperature. The orthophosphate generated during the reaction was measured by determining the absorption at 620 nm in a Tecan […]luor Plus suitable for MTPs.

[2] = tested on: Phytophthora infestans (Plant affected: barley); assay type: in vivo; settings: concentration at which an efficacy of 50% was achieved, protective
[3] = tested on: Phytophthora infestans (Plant affected: tomato); assay type: in vivo; settings: concentration at which an efficacy of 50% was achieved, protective
[4] = target: yeast farnesyl-pyrophosphate synthase (Saccharomyces cerevisiae, UniProt P08524); settings: substrate of yeast farnesyl-pyrophosphate synthase
[5] = tested on: Pyricularia oryzae (plant affected: rice); assay type: in vivo; settings: concentration for 50% efficacy, protective
[6] = tested on: Alternaria solani (plant affected: tomato); test: protective action for plants (spray, inoculation); assay type: in vivo; settings: concentration for 50% efficacy
Method: (§1) The effect, on fungi, of compounds found with the aid of a method according to the invention can also be assayed by testing their protective action for plants. To this end a suitable active substance preparation is prepared. For example 1 part by weight of active substance is mixed with, for example, 24.5 parts by weight of acetone and 24.5 parts by weight of dimethylformamide and 1 part by weight of alkylaryl polyglycol ether as emulsifier, and the concentrate is diluted to the desired concentration.
(§2) To test for protective action, young plants are sprayed with the active substance preparation. After the spray coating has dried on, the plants are inoculated with an aqueous suspension (conidia suspension) of a fungus and then remain for 1 day in an incubation chamber at approximately 20° C. and 100% relative atmospheric humidity.
(§3) The plants are then placed in a greenhouse at approx. 12° C. and a relative atmospheric humidity of approx. 90%.
(§4) The test is evaluated 1 to 12 days after the inoculation. 0% means an efficacy which corresponds to that of the control, while an efficacy of 100% means that no disease is observed.
(§5) The examples in question can be seen from the fact that an affected plant has been stated.

[7] = tested on: Erysiphe graminis (plant affected: barley); test: protective action for plants (spray, inoculation); assay type: in vivo; settings: concentration for 50% efficacy
Method: as §1, §2, §3, §4, §5

[8] = tested on: Leptosphaeria nodorum (plant affected: wheat); test: protective action for plants (spray, inoculation); assay type: in vivo; settings: concentration for 50% efficacy
Method: as §1, §2, §3, §4, §5

[9] = tested on: Sphaerotheca fuliginea (plant affected: cucumber); test: protective action for plants (spray, inoculation); assay type: in vivo; settings: concentration for 50% efficacy
Method: as §1, §2, §3, §4, §5

[10] = substrate: C=C(C)CCO[P@@](=O)(O)OP(=O)(O)O; test: purified protein, by the assay type; settings: other: substrate of yeast farnesyl-pyrophosphate synthase

Work on `CC(C)(CN)CN(C(=O)c1cccs1)c1ccc(-c2ccc(N3CCN(c4ccccn4)CC3)c(NC(=O)CCC3CCCC3)c2)cc1` [Example 4] yielded an IC50 [1] of 39.8 µM, an ED50 [2] of 500 ppm and an ED50 [3] of 500 ppm.

For `CC(Oc1ccccc1)C(=O)Nc1cc(C(=O)N[C@@H](Cc2ccccc2)C(=O)O)ccc1N1CCN(C(c2ccccc2)c2ccccc2)CC1` (some centres unmarked) [Example 3], the IC50 [1] was 31.6 µM, the ED50 [2] was 500 ppm and the ED50 [3] was 500 ppm.

`CC(=O)Nc1nc(-c2ccccc2OCC(N)=O)cc(-c2cccc(NC(=O)c3ccc([N+](=O)[O-])cc3)c2)c1C#N` [Example 2] showed an IC50 [1] of 31.6 µM.

For `CC(C)=CCOP(=O)(O)OP(=O)(O)O` [dimethylallyl pyrophosphate], the Km [4] was 36 µM.

For `COc1ccc(CN(CC(C)(C)CN)C(=O)c2cccc(C)c2)cc1-c1ccc(N2CCC(Cc3ccccc3)CC2)c(NC(=O)c2cccs2)c1` [Example 5], the IC50 [1] was 25.1 µM, the ED50 [5] was 548 ppm and the ED50 [6] was 548 ppm. It also gave an ED50 [7] of 548 ppm, an ED50 [8] of 548 ppm and an ED50 [9] of 548 ppm. It also gave an ED50 [3] of 548 ppm.

Work on `CC(=O)[n+]1ccc(-c2cc[n+](C(C)=O)cc2)cc1` [Example 1] yielded an IC50 [1] of 7.41 µM.

B1: yeast farnesyl-pyrophosphate synthase (Saccharomyces cerevisiae S288C) (protein)
chain: MASEKEIRRERFLNVFPKLVEELNASLLAYGMPKEACDWYAHSLNYNTPGGKLNRGLSVVDTYAILSNKTVEQLGQEEYEKVAILGWCIELLQAYFLVADDMMDKSITRRGQPCWYKVPEVGEIAINDAFMLEAAIYKLLKSHFRNEKYYIDITELFHEVTFQTELGQLMDLITAPEDKVDLSKFSLKKHSFIVTFKTAYYSFYLPVALAMYVAGITDEKDLKQARDVLIPLGEYFQIQDDYLDCFGTPEQIGKIGTDIQDNKCSWVINKALELASAEQRKTLDENYGKKDSVAEAKCKKIFNDLKIEQLYHEYEESIAKDLKAKISQVDESRGFKADVLTAFLNKVYKRSK
In the case of B1, the Km [10] is reported as 49 µM.
